SMILES	logP
O=C(c1ccc(-c2ccccc2)cc1)c1ccc2n1CCC2C(=O)O (stereo unspecified)	4.27
O=NN1CC=CCC1	1.18
CCCCc1ccc(CC(=O)O)cc1	3.25
C=CCC(NC(=O)C(Cc1ccccc1)NS(=O)(=O)N1CCN(C)CC1)C(=O)NC(CC1CCCCC1)C(=O)C(F)(F)C(=O)NCCN1CCOCC1 (stereo unspecified)	2.73
Oc1ccc2[nH]ccc2c1	1.11
CC(=O)c1ccc(C(O)(Cn2ccnc2)c2ccc(-c3ccncc3)cc2)cc1 (stereo unspecified)	2.41
CCCCCCCc1ccncc1	5
C#CC1(O)C(F)CC2C3CCc4cc(O)ccc4C3C(CC)CC21C (stereo unspecified)	4.12
CCOC(=O)C(CC)(CC)C(=O)NC(N)=O	1.45
CSC(C)=NOC(=O)N(C)SN(C(=O)N(C)C)C1CC1	2
COc1ccc(C(=O)CC(C)CC(=O)O)cc1Cl (stereo unspecified)	2.6
CC(=O)C(C)CN1CCCCC1 (stereo unspecified)	1.28
CCNC(=O)NS(=O)(=O)c1ccc(C)cc1	1.14
COc1ccc(CCNCC(O)COc2ccc(COCc3ncc[nH]3)cc2)cc1OC (stereo unspecified)	1.29
Cc1ccc(F)cc1NC1=NCCN1	1.41
CC1(C)NC(=Nc2ncc([N+](=O)[O-])s2)OC1(C)C	2.4
COc1ccc(C(O)(Cn2ccnc2)c2ccc(-c3ccncc3)cc2)cc1 (stereo unspecified)	3.55
CCN(CC)CCC(=O)Nc1c(C)cccc1C	2.21
C=CCOc1ccc(C(=O)c2ccc3n2CCC3C(=O)O)cc1 (stereo unspecified)	3.48
CCc1ccc2cc3ccccc3cc2c1	5.85
OCc1ccccc1C(c1ccc(O)cc1)c1ccc(O)cc1	3.27
CCOC(=O)CNC(=O)CCCCSc1ncnc2nc[nH]c12	0.91

SMILES	logP
CCN(CC)C(C)CC(=O)Nc1c(C)cccc1C (stereo unspecified)	2.63
CNC(=O)NS(=O)(=O)c1ccc(C)cc1	0.95
Cc1cccc(C)c1NC(=O)CCCCCN	1.29
C=C(C)C(=O)OCc1ccccc1	2.53
COC(=O)c1nc(NCC(O)CO)cnc1[N+](=O)[O-] (stereo unspecified)	-0.1
Cc1ccc(N(C)C)cc1	2.81
CCOc1ccc(Cc2cnc(N)nc2N)cc1OC	1.34
Cc1cccc(C)c1NC(=O)CCCCN	1.02
C=C(C)OCc1ccccc1	2.41
CCOC(=O)CC(NC(=O)CCCCSc1ncnc2nc[nH]c12)C(=O)OCC (stereo unspecified)	1.33
CNC(=O)OC1OC(=O)C2C3C=CC(C3)C12 (stereo unspecified)	0.63
COc1cc2nc(N3CCN(C(=O)C(C)OC)CC3)nc(N)c2cc1OC (stereo unspecified)	1.14
Cc1cccc(C)c1NC(=O)CN	0.41
c1ccc(-c2cn[nH]n2)cc1	1.91
OC(Cn1ccnc1)(c1ccc(-c2cccnc2)cc1)c1ccc(F)cc1F (stereo unspecified)	3.31
CC(=O)OCC1=C(C(=O)OCOC(=O)C(C)(C)C)N2C(=O)C(NC(=O)Cc3cccs3)C2SC1 (stereo unspecified)	1.57
CCOC(=O)C(C(=O)OC(C)C)=C1SCCS1	2.9
CC(=O)Nc1nc(NCC(O)CO)c(Cl)nc1[N+](=O)[O-] (stereo unspecified)	0
O=C(O)CCn1ccc2ccccc21	2.2
CCN1CC(C(O)C(CC2CCCCC2)NC(=O)C(Cc2cnc[nH]2)NC(=O)C(Cc2ccc(OC)cc2)NC(=O)N2CC(OCOC)C(OCOC)C2)OC1=O (stereo unspecified)	2.06
CCN(CC)CCCN(C(=O)Cc1ccccc1)c1c(C)cccc1C	4.94
[N-]=[N+]=N[C@H]1C[C@H](n2ccc(N)nc2=O)O[C@@H]1CO	-0.7

SMILES	logP
CCc1cc(CC)cc(C2C(=O)c3ccccc3C2=O)c1	4.94
Oc1cc2ccccc2cc1O	2.24
C=Cc1ccc(C(=O)O)cc1	2.18
O=C(O)c1ccc(Cl)cc1Nc1ccccc1	4.25
Cc1ccc(S(=O)(=O)NC(=O)Nc2ccccc2)cc1	3.11
CCCCn1c(=O)n(C)c(=O)c2[nH]cnc21	1.29
CN(C)c1nc(N(C)C)nc(N(C)CCO)n1	1.96
CC(C(N)=O)n1nnc2ccccc21 (stereo unspecified)	0.35
COc1cc(Cc2cnc(N)nc2N)ccc1N(C)C	1.87
Cc1ccc(N2Cn3c(nc4ccccc4c3=O)C2C)cc1 (stereo unspecified)	2.16
O=c1ccc2ccc3occc3c2o1	2.08
CCCN1C(=O)SC(=Cc2ccc([N+](=O)[O-])o2)C1=O	2.4
O=CC1=CC=C2C(C(=O)O)CCN2c2cc(Br)ccc21 (stereo unspecified)	3.6
COC(=O)C=COc1ccccc1Cl	3.02
CCCCCc1cc(OCCCCN)c2c(c1)OC(C)(C)C1CC=C(C)CC21 (stereo unspecified)	8.38
c1ccc2c(c1)ccc1cccnc12	3.43
CCCC(O)C(=O)O (stereo unspecified)	0.45
CCn1c(=O)n(C)c(=O)c2[nH]cnc21	0.52
O=C(c1cccc(C(F)(F)F)c1)c1ccc2n1CCC2C(=O)O (stereo unspecified)	3.69
CCCC(=O)c1ccccc1	2.77
O=C(OOC(=O)c1ccccc1)c1ccccc1	3.46
CCN1CC(C(O)C(CC2CCCCC2)NC(=O)C(Cc2cnc[nH]2)NC(=O)C(Cc2ccc(OC)cc2)NC(=O)N(C)CCOCOCCOC)OC1=O (stereo unspecified)	2.03

— the OPERA property sets (Mansouri et al. 2018)
